Reference: patent US10588935B2, “FC receptor (FcRn) binding peptides and uses thereof” (THE BRIGHAM AND WOMEN'S HOSPITAL, INC., priority 2013, dated 2020)
Where two headings read alike, the source gives them in different places. Bridge positions count the residues as written; N and C are the ends. Peptide text beside a SMILES is read from it.

Target: T1, soluble human FcRn (Homo sapiens, UniProt P55899)
T1 construct: Soluble human FcRn was expressed and purified by Biogen-Idec as previously described (29)
Test: SPR (Biacore) affinity of peptides for immobilized soluble human FcRn
Format: binding
Description: SPR analyses were conducted using a Biacore 3000 or T100 instrument. Research-grade CM5 sensor chips and all coupling reagents for immobilization were purchased from Biacore. All proteins were cross-linked to the dextran surface of a CM5 sensor chip by standard amine coupling chemistry as recommended by Biacore. […] Binding experiments were performed at pH 6.0 or 7.4 using 50 mM phosphate, 100 mM sodium chloride and 0.01% surfactant P20. […] Bound albumin protein was then allowed to dissociate from the chip for 5 minutes with running buffer. Any remaining albumin was removed from the chip with a 60 second injection (2 cycles) of pH 8.0 Tris-HCl regeneration buffer (1 M Tris pH 8.0) at 25 μL/min flow rate. The binding responses recorded near the end of the association phase were plotted as a function of concentration. Equilibrium dissociation constants (KD), were derived from sensorgrams using the 1:1 binding model of BIAevaluation software 4.1.

[1] = Table 1, pH 6, shFcRn immobilized on the sensor chip, steady state fit, read-out: Kd, pH 6** Biacore

| Compound | Kd [1] | Kd Ratio 7.4/6.0 (Table 2) | other results |
| --- | --- | --- | --- |
| CSCC[C@H](NC(=O)[C@@H](NC(C)=O)C(C)C)C(=O)N[C@@H](Cc1c[nH]cn1)C(=O)N[C@H]1CSSC[C@@H](C(=O)N[C@@H](CCC(=O)O)C(=O)N[C@@H](CCC(N)=O)C(=O)NCC(N)=O)NC(=O)[C@H](CCCCN)NC(=O)[C@H](Cc2ccccc2)NC(=O)[C@H](CCC(=O)O)NC(=O)[C@H](CCC(=O)O)NC(=O)[C@H](CC(=O)O)NC(=O)[C@H](Cc2c[nH]c3ccccc23)NC(=O)[C@H](Cc2ccccc2)NC1=O [SYN1258] (Ac-VMHCFWDEEFKCEQG-NH2; disulfide 4-12 (inferred)) |  | 65 |  |
| CSCC[C@@H]1NC(=O)[C@H](CCC(=O)O)NC(=O)[C@H](CCC(=O)O)NC(=O)[C@H](CC(=O)O)NC(=O)[C@H](Cc2c[nH]c3ccccc23)NC(=O)[C@H](Cc2c[nH]c3ccccc23)NC(=O)[C@@H](NC(=O)[C@H](Cc2c[nH]cn2)NC(=O)[C@H](CCSC)NC(=O)[C@@H](NC(C)=O)C(C)C)CSSC[C@@H](C(=O)N[C@@H](CCCNC(=N)N)C(=O)N[C@@H](C)C(=O)N[C@@H](Cc2ccccc2)C(N)=O)NC(=O)[C@H](CC(C)C)NC1=O [SYN1533] (Ac-VMHCWWDEEMLCRAF-NH2; disulfide 4-12 (inferred)) |  | 106 |  |
| CSCC[C@H](NC(=O)[C@@H](NC(C)=O)C(C)C)C(=O)N[C@@H](Cc1c[nH]cn1)C(=O)N[C@H]1CSSC[C@@H](C(=O)N[C@@H](CC(=O)O)C(=O)N[C@@H](CCC(N)=O)C(=O)N[C@H](C(N)=O)C(C)C)NC(=O)[C@H](CCCCN)NC(=O)[C@H](Cc2ccccc2)NC(=O)[C@H](CCC(=O)O)NC(=O)[C@H](CCC(=O)O)NC(=O)[C@H](CC(=O)O)NC(=O)[C@H](Cc2c[nH]c3ccccc23)NC(=O)[C@H](Cc2ccccc2)NC1=O [SYN1260] (Ac-VMHCFWDEEFKCDQV-NH2; disulfide 4-12 (inferred)) |  | 73 | Kd (Table 2, pH 6, immobilized shFcRn, data fit steady state or 2 site, read-out: Kd, pH 6** Biacore): 0.3 µM; Kd (Table 2, pH 7.4, data only 100 uM, therefore Kd may be higher, read-out: Kd, pH 7.4 Biacore): 22 µM |

Second part, led by results:

| Kd [1] | Kd Ratio 7.4/6.0 (Table 2) | Compound | other results |
| --- | --- | --- | --- |
| 9.3 µM |  | CC(=O)N[C@@H](CCCNC(=N)N)C(=O)N[C@@H](Cc1ccc(O)cc1)C(=O)N[C@@H](Cc1ccccc1)C(=O)N[C@H]1CSSC[C@@H](C(=O)N[C@@H](CCC(=O)O)C(=O)N[C@@H](CCC(=O)O)C(=O)N[C@H](C(N)=O)C(C)C)NC(=O)[C@H](Cc2c[nH]c3ccccc23)NC(=O)CNC(=O)[C@H](Cc2c[nH]cn2)NC(=O)[C@H](C)NC(=O)[C@H](Cc2c[nH]c3ccccc23)NC(=O)[C@H](CCCCN)NC(=O)[C@H]([C@@H](C)O)NC1=O [SYN1548] (Ac-RYFCTKWAHGWCEEV-NH2; disulfide 4-12 (inferred)) |  |
| > 100 µM |  | CC(=O)N[C@@H](CCCNC(=N)N)C(=O)N[C@@H](Cc1ccc(O)cc1)C(=O)N[C@@H](Cc1ccccc1)C(=O)N[C@@H]1C(=O)N[C@@H]([C@@H](C)O)C(=O)N[C@@H](CCCCN)C(=O)N[C@@H](Cc2c[nH]c3ccccc23)C(=O)N[C@@H](CCCCN)C(=O)N[C@@H](Cc2c[nH]cn2)C(=O)NCC(=O)N[C@@H](Cc2c[nH]c3ccccc23)C(=O)N[C@H](C(=O)N[C@@H](CCC(=O)O)C(=O)N[C@@H](CCC(=O)O)C(=O)N[C@H](C(N)=O)C(C)C)C(C)(C)SSC1(C)C [SYN1557, Ac-RYF-Pen-TKWKHGW-Pen-EEV-CONH2] |  |
| > 100 µM |  | CC(=O)N[C@@H](CCCNC(=N)N)C(=O)N[C@@H](Cc1ccc(O)cc1)C(=O)N[C@@H](Cc1ccccc1)C(=O)N[C@H]1CSSC[C@@H](C(=O)N[C@@H](CCC(=O)O)C(=O)N[C@@H](CCC(=O)O)C(=O)N[C@H](C(N)=O)C(C)C)NC(=O)[C@H](Cc2c[nH]c3ccccc23)NC(=O)CNC(=O)[C@H](Cc2c[nH]cn2)NC(=O)[C@H](CCCCN)NC(=O)[C@H](C)NC(=O)[C@H](CCCCN)NC(=O)[C@H]([C@@H](C)O)NC1=O [SYN1547] (Ac-RYFCTKAKHGWCEEV-NH2; disulfide 4-12) |  |
